Measurements published in patent publication US5593970A, “Heterocyclic anthracycline analogs” (priority 1994, dated 1997).
Like-named read-outs stand apart in the source and are kept apart here.

Key:
LOX = test: Microculture tetrazolium assay; type: cell-based; conditions: read-out: IC50
T47D = test: Microculture tetrazolium assay; type: cell-based; conditions: read-out: IC50
SKOV3 = test: Microculture tetrazolium assay; type: cell-based; conditions: read-out: IC50
P388 = test: Soft agar colony formation disk diffusion assay; type: cell-based, murine
Text: (§1) A more elaborate version of this fundamental assay, the soft agar colony formation disk diffusion assay was used. This assay defines the relative activity of one particular drug versus a tumoral cell line type. The effect of the test drug against tumoral cells could be measured by its inhibitory capacity against colony formation after the delivery of the compound, in different concentrations on an filter disk(4). A modified technique of this assay was used in order to investigate the antiproliferative activity of candidate compounds. Tumoral cells from solid tumors and ascitic lines were plated separately in a two layer agar matrix. Cell lines to be tested were suspended in an upper layer of 0.4% Noble agar (Difco#00142-01) in RPMI-1066 (Gibco#3201875) at a yield varying between 10^4 to 2×10^5 cells per 60 mm Petri dish. Plating efficiency was determined for each line in order to achieve an optimal number of colonies per dish. Plates were examined before drug administration to confirm a uniform dispersion of single cells. The bottom layer consisted of 0.8% Noble agar, 0.8% Tryptic Soy Broth (difco#0037001)in CMRL-1066/Fischer's. The bottom layers were used within 2 and 9 days of preparation. Plated dishes (bottom layer of agar, upper layer of cells and administered drug were incubated in humidified atmosphere at 37° C., 5% CO2 for 10-20 days depending upon the time necessary to observe adequate colonies (defined as a cell aggregate of more than 50 cells) both control and drug inhibited. Drugs were administered on a paper filter disk (Whatman No. 1) of 6.5 mm diameter placed on the upper layer at 1/3 distance from the edge of the dish. The anti-clonogenic activity of the compounds was measured as the zone of inhibition from the disk edge to the most proximal colonies. This zone of inhibition was checked on an inverted microscope (40×) and was measured with a micrometer mounted in the eyepiece. The ocular micrometer was calibrated with a stage micrometer set for a particular combination of ocular and objective lenses. […] We made a modification of the initial technique by not plating a solid tumor and a leukemia simultaneously in the same Petri dish. Anti-clonogenic tests performed on leukemia cell line have helped in the discovery of the majority of current clinically used cytostatic drugs. Our tests on solid tumor lines (animal or human) may help define active compounds with solid tumor specificity. […] Murine tumors were maintained IN VIVO in order to diminish the selection of subpopulations of cells normally present in the heterogenous IN VIVO tumor. The actual drug sensitivity assay was done IN VITRO. For these experiments cells from freshly excised tumors or from ascitic fluids were maintained in RPMI-1066. Both compounds were dissolved in DMSO (1 mg/100 ul) and brought to final volume (250 ul) with Millipore deionized sterile water. Further dilutions were made with […] volume of 25 ul of freshly prepared solution was placed on the filter disk and allowed to dry.

B16 = test: Soft agar colony formation disk diffusion assay; type: cell-based, murine
Text: as §1

M5076 = test: Soft agar colony formation disk diffusion assay; type: cell-based, murine
Text: as §1

P388/ADR = test: Soft agar colony formation disk diffusion assay; type: cell-based, murine
Text: as §1

MATB.WT = test: Soft agar colony formation disk diffusion assay; type: cell-based, rat
Text: as §1

MATB/ADR = test: Soft agar colony formation disk diffusion assay; type: cell-based, rat
Text: as §1

HT29 = test: Microculture tetrazolium assay; type: cell-based; conditions: read-out: IC50
NSC Lung = test: NCI assay, average per cancer type; conditions: Homo sapiens; for CC50: 48 h, read-out: Average LOG10 LC50; for GI50: read-out: Average LOG10 GI50
Renal = test: NCI assay, average per cancer type; conditions: Homo sapiens; for CC50: 48 h, read-out: Average LOG10 LC50; for GI50: read-out: Average LOG10 GI50
Ovarian = test: NCI assay, average per cancer type; conditions: Homo sapiens; for GI50: read-out: Average LOG10 GI50
tumor cell lines = test: NCI sulforhodamine B assay, all cell lines; conditions: for CC50 / IC100: 48 h; for CC50: read-out: Log10 LC50, Mean / MG-MID, all cell lines (converted); for IC100: read-out: Log10 TGI, Mean / MG-MID, all cell lines

Row | Molecule | IC50 (LOX) [µM] | zone of inhibition (P388; 10 μg/DISK) [Zone Units] | zone of inhibition (P388; 100 μg/DISK) [Zone Units] | zone of inhibition (B16; 10 μg/DISK) [Zone Units] | zone of inhibition (B16; 100 μg/DISK) [Zone Units] | zone of inhibition (M5076; 10 μg/DISK) [Zone Units] | zone of inhibition (M5076; 100 μg/DISK) [Zone Units] | zone of inhibition (P388/ADR; 10 μg/DISK) [Zone Units] | zone of inhibition (P388/ADR; 100 μg/DISK) [Zone Units] | zone of inhibition (MATB.WT; 10 μg/DISK) [Zone Units] | zone of inhibition (MATB.WT; 100 μg/DISK) [Zone Units] | cross resistance with adriamycin, MATB/ADR vs MATB.WT (MATB/ADR) | zone of inhibition (MATB/ADR; 10 μg/DISK) [Zone Units] | zone of inhibition (MATB/ADR; 100 μg/DISK) [Zone Units] | IC50 (T47D; Homo sapiens) [µM] | IC50 (SKOV3; Homo sapiens, SK-OV-3, SKOV3) [µM] | IC50 (HT29; Homo sapiens, HT-29, HT29) [µM] | also measured
1 | 3-(2-acetoxy-1-propeneketal)aceto-6-acetoxy-1-hydroxy-1,2,3,4-tetrahydro-(2-oxygen)naphtacene-5,12-dione and 3-(2-acetoxy-1-propeneketal)-aceto-11-acetoxy-1-hydroxy-1,2,3,4-tetrahydro-(2-oxygen)naphtacene-5,12-dione [BCH-710] | 3.51 | 13.0 ± 0.0 | 326.5 ± 43.1 | 21.0 ± 2.1 | 21.0 ± 2.1 | 209.5 ± 21.9 | 533.0 ± 20.0 | 0 | 110.0 ± 0.0 | 44.0 | 366.0 ± 0.0 | greater cytotoxicity in the resistant breast tumor cell line | 288.0 ± 21.9 | 350.0 ± 64.3 | – | – | – | IC50 (T47D): 3.57 µM; IC50 (SKOV3; SKOV3): 3.98 µM; IC50 (HT29; HT29): 1.79 µM
2 | 3-Carbomethoxy-1,11-dihydroxy-1,2,3,4-tetrahydro-(2-oxygen)naphthacene-5,12-dione 3-Carbomethoxy-1,6-dihydroxy-1,2,3,4-tetrahydro-(2-oxygen)naphthacene-5,12-dione [BCH-711] | 11.5 | 45.5 ± 21.9 | 183.0 ± 0.0 | 27.0 ± 4.2 | 137.0 ± 21.2 | 55.0 ± 8.4 | 198.0 ± 21.2 | 40.0 ± 20.0 | 150.0 ± 30.0 | 27.0 ± 4.2 | 137.0 ± 21.2 | greater cytotoxicity in the resistant breast tumor cell line | 45.5 ± 21.9 | 107.0 ± 21.9 | – | – | – | IC50 (T47D): 12.4 µM; IC50 (SKOV3; SKOV3): 11.1 µM; IC50 (HT29; HT29): 5.68 µM
3 | COC(=O)C1CC2=C(C(=O)c3c(cc4ccccc4c3O)C2=O)C(O[C@H]2C[C@H](NC(=O)C(F)(F)F)[C@H](O)[C@H](C)O2)O1 (mixture of isomers) [BCH-242, (1'S,1R,3S) and (1'S, 1S,3R)-Methyl[11-hydroxy-1-2',3',6'-trideoxy-3-trifluroacetamido-L-lyxohexopyranose)-5,12-dioxo-3,4,5,12-tetrahydroanthraceno[2,3-c]pyran-3-yl]formate] | – | – | – | – | – | – | – | – | – | – | – | – | – | – | – | – | – | CC50 (NSC Lung): 6.17 µM; GI50 (NSC Lung): 0.977 µM; CC50 (Renal): 6.03 µM; GI50 (Renal): 0.955 µM; GI50 (Ovarian): 0.741 µM; antiproliferative and cytotoxic activity in words (tumor cell lines): most of the cell lines of solid tumors ultimately show cytotoxicity to the drug; CC50 (tumor cell lines; Homo sapiens): 14.5 µM; IC100 (tumor cell lines; Homo sapiens): 5.25 µM; Log10 TGI, Mean / MG-MID (tumor cell lines; all cell lines): -5.52 log molar; Log10 LC50, Mean / MG-MID (tumor cell lines; all cell lines, 2880 min): -5.09 log molar
4 | CCOC(=O)[C@@H]1CC2=C(C(=O)c3cc4ccccc4c(O)c3C2=O)[C@@H](O[C@H]2C[C@H](NC(=O)C(F)(F)F)[C@H](O)[C@H](C)O2)O1 [BCH-681, (1'S,1R,3S)Ethyl[6-hydroxy-5,12-dioxo-1-(3'-trifuloroacetamido-1-daunosaminyl)-3,4,5,12-tetrahydroanthraceno(2,3-C)pyran-3-yl]formate] | 4.89 | – | – | – | – | – | – | – | – | 51.8 ± 4.3 | 176.9 ± 8.6 | no cross resistance with adriamycin | 54.9 ± 8.6 | 244.0 ± 43.1 | 8.15 | 6.02 | 1.72 | CC50 (NSC Lung): 22.9 µM; GI50 (NSC Lung): 2.88 µM; CC50 (Renal): 21.9 µM; GI50 (Renal): 3.02 µM; CC50 (Ovarian; 48 h, read-out: Average LOG10 LC50): 16.6 µM; GI50 (Ovarian): 2.69 µM; CC50 (tumor cell lines; Homo sapiens): 16.2 µM; IC100 (tumor cell lines; Homo sapiens): 5.5 µM; GI50 (tumor cell lines; Homo sapiens, read-out: Log10 GI50, Mean / MG-MID, all cell lines (converted)): 2.14 µM
5 | CCOC(=O)[C@H]1CC2=C(C(=O)c3cc4ccccc4c(O)c3C2=O)[C@H](O[C@H]2C[C@H](NC(=O)C(F)(F)F)[C@H](O)[C@H](C)O2)O1 [BCH-684, (1'S,1S,3R)Ethyl[6-hydroxy-5,12-dioxo-1-(3'-trifluoroacetamido-1-daunosaminyl)-3,4,5,12-tetrahydroanthraceno(2,3-C)pyran-3-yl]formate] | – | – | – | – | – | – | – | – | – | 131.3 ± 12.9 | 366.0 ± 172.5 | no cross resistance with adriamycin | 122.0 ± 17.0 | 320.2 ± 107.8 | – | 4.19 | – | –
6 | CC(=O)Oc1c2c(c(O)c3ccccc13)C(=O)C1=C(C2=O)C(O)OC(C(C)=O)C1 (stereo not shown) [BCH-704, Methyl(11-acetoxy-1,6-dihydroxy-5,12-dioxo-3,4,5,12-tetrahydroanthraceno[2,3-c]pyran-3-yl)ketone] | 28.3 | – | – | – | – | – | – | – | – | 198.5 ± 21.9 | 414.8 ± 25.8 | greater cytotoxicity in the resistant breast tumor cell line | 320.2 ± 64.7 | 527.4 ± 72.9 | 11.8 | 16.4 | 10.7 | –
7 | C=CC1CC2=C(C(=O)c3cc4ccccc4c(O)c3C2=O)C(OC)O1 (stereo not shown) [BCH-712, 6-hydroxy-1-methoxy-1,2,3,4-tetrahydro-3-vinyl-(2-oxygen) naphthacene-5,12-dione] | – | 6.1 ± 0.0 | 70.0 ± 21.2 | 0 | 27.0 ± 4.2 | 0 | 158.0 ± 34.6 | 0 | 42.5 ± 9.1 | 21.0 ± 4.3 | 76.0 ± 21.2 | no cross resistance with adriamycin | 0 | 64.0 ± 4.2 | – | – | – | –
8 | CCOC(=O)C1Cc2c(c(OC)c3c(c2OC)C(=O)c2ccccc2C3=O)CS1 (stereo not shown) [BCH-717] | > 100 | 0 | 122.0 ± 0.0 | 0 | 106.0 ± 64.3 | 18.3 | 39.5 ± 30.4 | 0 | 0 | 0 | 0 | – | 0 | 0 | > 100 | > 100 | > 100 | –
